Measurements as given in BindingDB's records for patent US12421225 (Kaken Pharmaceutical Co., 2025).

Molecular target: Sodium channel protein type 9 subunit alpha (Homo sapiens, UniProt Q15858)
Experiment: Human Nav1.7 Inhibitory Activity Evaluation
Procedure: The amount of current through human Nav1.7 was recorded using a fully automatic patch clamp device QPatch16X (Sophion Biosciences) at room temperature. As the extracellular solution, the solution of 145 mM NaCl, 4 mM KCl, 1 mM MgCl2, 2 mM CaCl2, 10 mM Glucose, 10 mM 4-(2-hydroxyethyl)-1-piperazine ethanesulfonic acid (HEPES) at pH 7.4 was used. As the intracellular solution, the solution of 135 mM CsF, ⅕ mM glycol ether diaminetetraacetic acid (EGTA)/CsOH, 10 mM HEPES, 10 mM NaCl at pH 7.3 was used. The test compounds were dissolved in dimethyl sulfoxide (DMSO) and diluted with the extracellular solution to attain the DMSO concentration of 0.1% at the time of assay. The current response was obtained at a sampling frequency of 25 kHz, and noise was removed with a 3 kHz low-pass filter. The holding potential was −100 mV. Correction of the leakage current was carried out by applying a step pulse of −120 mV before the test pulse. In order to investigate inhibitory action of the test compound, the following test pulse was given: Namely, after depolarizing pulse of −10 mV was applied for 50 milliseconds, it was fixed at −120 mV for 500 milliseconds; a potential at which about 30-40% of the channel was inactivated was maintained for 15 seconds, then fixed again at −120 mV for 100 milliseconds, and finally a −10 mV depolarization pulse was given for 50 milliseconds. Test pulses were given before and after the test compound addition.

Chain of Sodium channel protein type 9 subunit alpha (Q15858 whole entry): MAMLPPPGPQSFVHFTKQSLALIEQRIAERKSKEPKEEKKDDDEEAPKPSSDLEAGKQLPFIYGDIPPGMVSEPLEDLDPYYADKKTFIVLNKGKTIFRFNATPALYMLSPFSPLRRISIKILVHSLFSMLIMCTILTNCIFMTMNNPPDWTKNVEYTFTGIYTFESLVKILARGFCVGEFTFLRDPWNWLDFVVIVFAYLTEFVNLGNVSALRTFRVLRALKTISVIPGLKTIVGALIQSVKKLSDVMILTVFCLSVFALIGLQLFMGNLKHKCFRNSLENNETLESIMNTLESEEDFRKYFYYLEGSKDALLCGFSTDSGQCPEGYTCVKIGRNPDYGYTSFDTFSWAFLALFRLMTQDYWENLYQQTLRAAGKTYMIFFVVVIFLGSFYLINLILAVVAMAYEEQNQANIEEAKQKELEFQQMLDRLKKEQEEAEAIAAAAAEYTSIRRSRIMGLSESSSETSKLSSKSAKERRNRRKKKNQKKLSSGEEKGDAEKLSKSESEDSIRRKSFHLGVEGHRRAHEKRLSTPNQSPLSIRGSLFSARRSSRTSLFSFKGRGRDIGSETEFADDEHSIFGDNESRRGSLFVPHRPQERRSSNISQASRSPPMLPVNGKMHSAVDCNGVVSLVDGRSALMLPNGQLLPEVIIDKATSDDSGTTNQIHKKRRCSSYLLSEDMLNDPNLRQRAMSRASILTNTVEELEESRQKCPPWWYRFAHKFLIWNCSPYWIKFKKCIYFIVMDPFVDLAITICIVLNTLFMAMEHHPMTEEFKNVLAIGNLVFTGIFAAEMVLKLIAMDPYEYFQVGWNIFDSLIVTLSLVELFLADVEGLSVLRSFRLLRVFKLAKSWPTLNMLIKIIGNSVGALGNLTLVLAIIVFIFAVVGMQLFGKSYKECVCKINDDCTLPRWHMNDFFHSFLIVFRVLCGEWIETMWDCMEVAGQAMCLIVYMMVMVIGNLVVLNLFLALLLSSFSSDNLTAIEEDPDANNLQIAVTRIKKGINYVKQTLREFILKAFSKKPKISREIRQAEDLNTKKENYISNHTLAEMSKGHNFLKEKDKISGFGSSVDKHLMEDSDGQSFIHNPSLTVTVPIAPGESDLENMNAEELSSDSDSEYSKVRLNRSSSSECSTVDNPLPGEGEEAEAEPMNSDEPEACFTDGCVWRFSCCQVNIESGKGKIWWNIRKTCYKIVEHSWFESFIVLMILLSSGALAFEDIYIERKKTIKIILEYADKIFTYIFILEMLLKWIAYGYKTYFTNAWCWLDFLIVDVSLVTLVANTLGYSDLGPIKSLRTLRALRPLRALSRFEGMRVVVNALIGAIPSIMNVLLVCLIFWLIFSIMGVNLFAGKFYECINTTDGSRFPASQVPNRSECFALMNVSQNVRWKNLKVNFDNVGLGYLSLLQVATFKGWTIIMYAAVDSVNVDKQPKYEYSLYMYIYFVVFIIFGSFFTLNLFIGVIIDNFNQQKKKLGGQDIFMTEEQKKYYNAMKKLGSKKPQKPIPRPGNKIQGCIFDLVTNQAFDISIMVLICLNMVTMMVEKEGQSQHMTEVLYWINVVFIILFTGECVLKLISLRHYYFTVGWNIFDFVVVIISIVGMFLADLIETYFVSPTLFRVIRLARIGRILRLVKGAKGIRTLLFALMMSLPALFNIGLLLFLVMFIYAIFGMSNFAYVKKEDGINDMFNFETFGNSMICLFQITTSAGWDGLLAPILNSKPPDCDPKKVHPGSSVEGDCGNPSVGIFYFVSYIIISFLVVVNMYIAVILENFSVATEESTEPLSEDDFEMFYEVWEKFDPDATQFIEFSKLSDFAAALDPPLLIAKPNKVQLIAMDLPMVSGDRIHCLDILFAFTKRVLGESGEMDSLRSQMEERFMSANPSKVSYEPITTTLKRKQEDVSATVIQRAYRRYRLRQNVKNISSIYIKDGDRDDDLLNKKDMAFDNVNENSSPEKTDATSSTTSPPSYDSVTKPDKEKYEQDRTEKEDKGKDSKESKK

`O=C(N[C@H]1COc2ccc(Br)cc2C1)c1cc2n(n1)CC(C(F)(F)F)O2` (some centres not stated) [US12421225, Example 445] and `N#Cc1ccc2c(c1)C[C@@H](NC(=O)c1cc3n(n1)C[C@@H](CCCOC(F)(F)F)O3)CO2` (single isomer, unassigned; isomer B) [US12421225, Example 247 (isomer B)] cannot be ordered by IC50: less than 1 µM for the first, less than 1 µM for the second.

`O=C(N[C@H]1COc2ccc(-c3ccccn3)cc2C1)c1cc2n(n1)CC[C@@H](COCC1CC1)O2` (single isomer, unassigned; isomer B) [US12421225, Example 111 (isomer B)] and `N#Cc1ccc2c(c1)C[C@@H](NC(=O)c1cc3n(n1)CCC(CC1CC1)O3)CO2` (single isomer, unassigned) [US12421225, Example 97 (isomer B)] cannot be ordered by IC50: less than 1 µM for the first, less than 1 µM for the second.

`O=C(N[C@H]1COc2ccc(CC(F)F)cc2C1)c1cc2n(n1)CC[C@@H](COCC(F)(F)F)O2` (single isomer, unassigned; isomer B) [US12421225, Example 127 (isomer B)] and `N#Cc1ccc2c(c1)C[C@@H](NC(=O)c1cc3n(n1)CC[C@@H](COCC1(F)CC1)O3)CO2` (single isomer, unassigned; isomer B) [US12421225, Example 552 (isomer B)] cannot be ordered by IC50: less than 1 µM for the first, no more than 10 µM for the second.

Work on `CC[C@@H]1CCn2nc(C(=O)N[C@H]3COc4ccc(C#N)cc4C3)cc2O1` (single isomer, unassigned; isomer B) [US12421225, Example 92 (isomer B)] yielded an IC50 of less than 1 µM.
